Reference: article PMC5218480 (PLoS ONE, 2017)

Tested on: MV-4-11 cells
Test: Gene expression microarray analysis (Affymetrix PrimeView) and GSEA
Assay type: cell-based, human
Design: RFU PODN (11730768_x_at) / Fold change /veh PODN (11730768_x_at) / RFU LINC00158 (11744669_a_at) / Fold change /veh LINC00158 (11744669_a_at) / RFU DUSP10 (11751237_a_at) / Fold change /veh DUSP10 (11751237_a_at) / RFU ID3 (11757404_x_at) / Fold change /veh ID3 (11757404_x_at) / RFU PLEKHG5 (11737974_s_at) / Fold change /veh PLEKHG5 (11737974_s_at) / RFU LRRC4B (11730491_at) / Fold change /veh LRRC4B (11730491_at) / RFU GIMAP4 (11747438_a_at) / Fold change /veh GIMAP4 (11747438_a_at) / RFU KRT8 (11758183_x_at) / Fold change /veh KRT8 (11758183_x_at) / RFU CNN1 (11734310_a_at) / Fold change /veh CNN1 (11734310_a_at) / RFU VPS37D (11726825_at) / Fold change /veh VPS37D (11726825_at) / RFU C10orf10 (11716522_x_at) / Fold change /veh C10orf10 (11716522_x_at) / RFU KIR2DL2 /// KIR2DL4 /// KIR2DL5A /// KIR2DL5B /// KIR2DS1 /// KIR2DS2 /// KIR2DS3 /// KIR2DS4 /// KIR3DL3 /// KIR3DL3 /// KIR3DS1 (11738374_at) / Fold change /veh KIR2DL2 /// KIR2DL4 /// KIR2DL5A /// KIR2DL5B /// KIR2DS1 /// KIR2DS2 /// KIR2DS3 /// KIR2DS4 /// KIR3DL3 /// KIR3DL3 /// KIR3DS1 (11738374_at) / RFU C1QL1 (11718748_at) / Fold change /veh C1QL1 (11718748_at) / RFU TMPRSS4 (11747572_a_at) / Fold change /veh TMPRSS4 (11747572_a_at) / RFU HAMP (11756126_x_at) / Fold change /veh HAMP (11756126_x_at) / RFU RNFT2 (11725882_a_at) / Fold change /veh RNFT2 (11725882_a_at) / RFU NR4A2 (11747474_a_at) / Fold change /veh NR4A2 (11747474_a_at) / RFU ABCC12 (11746883_a_at) / Fold change /veh ABCC12 (11746883_a_at) / RFU TMEM136 (11760407_x_at) / Fold change /veh TMEM136 (11760407_x_at) / RFU CLDN22 /// WWC2 (11732394_at) / Fold change /veh CLDN22 /// WWC2 (11732394_at) / RFU HLA-DPB1 (11760878_x_at) / Fold change /veh HLA-DPB1 (11760878_x_at) / RFU SPINT1 (11716480_a_at) / Fold change /veh SPINT1 (11716480_a_at) / RFU GAP43 (11754022_s_at) / Fold change /veh GAP43 (11754022_s_at) / RFU A4GNT (11735810_at) / Fold change /veh A4GNT (11735810_at) / RFU PRB3 (11715151_x_at) / Fold change /veh PRB3 (11715151_x_at) / RFU TUBB4B (11761932_at) / Fold change /veh TUBB4B (11761932_at) / RFU CAPN14 (11732068_a_at) / Fold change /veh CAPN14 (11732068_a_at) / RFU TMCC2 (11721928_a_at) / Fold change /veh TMCC2 (11721928_a_at) / RFU IRGQ (11745062_a_at) / Fold change /veh IRGQ (11745062_a_at) / RFU FAM174B (11720279_a_at) / Fold change /veh FAM174B (11720279_a_at) / RFU TMPRSS4 (11748680_a_at) / Fold change /veh TMPRSS4 (11748680_a_at) / RFU FAM212B (11763350_a_at) / Fold change /veh FAM212B (11763350_a_at) / RFU PLEKHG5 (11743358_a_at) / Fold change /veh PLEKHG5 (11743358_a_at) / RFU ZSCAN30 (11745921_a_at) / Fold change /veh ZSCAN30 (11745921_a_at) / RFU CMKLR1 (11741424_a_at) / Fold change /veh CMKLR1 (11741424_a_at) / RFU LOC101060620 /// MAPK8IP1 (11723275_at) / Fold change /veh LOC101060620 /// MAPK8IP1 (11723275_at) / RFU SPTSSB (11747773_x_at) / Fold change /veh SPTSSB (11747773_x_at) / RFU PRSS12 (11739890_at) / Fold change /veh PRSS12 (11739890_at) / RFU BIN1 (11741810_x_at) / Fold change /veh BIN1 (11741810_x_at) / RFU WNT11 (11732464_a_at) / Fold change /veh WNT11 (11732464_a_at) / RFU C10orf10 (11716521_a_at) / Fold change /veh C10orf10 (11716521_a_at) / RFU C5orf56 (11738089_at) / Fold change /veh C5orf56 (11738089_at) / RFU CYB561 (11721691_x_at) / Fold change /veh CYB561 (11721691_x_at) / RFU ANKRD19P (11752326_a_at) / Fold change /veh ANKRD19P (11752326_a_at) / RFU OR2T12 /// OR2T33 /// OR2T8 (11738714_s_at) / Fold change /veh OR2T12 /// OR2T33 /// OR2T8 (11738714_s_at) / RFU VCAN (11748164_a_at) / Fold change /veh VCAN (11748164_a_at) / RFU JSRP1 (11732532_at) / Fold change /veh JSRP1 (11732532_at) / RFU KRTAP10-11 (11738290_x_at) / Fold change /veh KRTAP10-11 (11738290_x_at) / RFU MYO3A (11730013_a_at) / Fold change /veh MYO3A (11730013_a_at) / RFU EBF3 (11725865_a_at) / Fold change /veh EBF3 (11725865_a_at) / RFU CAMK2N1 (11719241_x_at) / Fold change /veh CAMK2N1 (11719241_x_at) / RFU C5orf56 (11738088_a_at) / Fold change /veh C5orf56 (11738088_a_at) / RFU OLFML3 (11715873_a_at) / Fold change /veh OLFML3 (11715873_a_at) / RFU LOC100653217 /// NTM (11731650_a_at) / Fold change /veh LOC100653217 /// NTM (11731650_a_at) / RFU MAPK11 (11762145_a_at) / Fold change /veh MAPK11 (11762145_a_at) / RFU FIZ1 (11724087_x_at) / Fold change /veh FIZ1 (11724087_x_at) / RFU OASL (11726364_x_at) / Fold change /veh OASL (11726364_x_at) / RFU SOX15 (11748057_x_at) / Fold change /veh SOX15 (11748057_x_at) / RFU CD79A (11719716_a_at) / Fold change /veh CD79A (11719716_a_at) / RFU HIST1H1D (11736915_at) / Fold change /veh HIST1H1D (11736915_at) / RFU CASKIN2 (11723855_a_at) / Fold change /veh CASKIN2 (11723855_a_at) / RFU LOC730098 (11760151_x_at) / Fold change /veh LOC730098 (11760151_x_at) / RFU OR4N2 (11742367_at) / Fold change /veh OR4N2 (11742367_at) / RFU PRRT2 (11749266_a_at) / Fold change /veh PRRT2 (11749266_a_at) / RFU SNX32 (11753110_a_at) / Fold change /veh SNX32 (11753110_a_at) / RFU CDHR5 (11726645_a_at) / Fold change /veh CDHR5 (11726645_a_at) / RFU RCAN1 (11760418_a_at) / Fold change /veh RCAN1 (11760418_a_at) / RFU FAM167A (11723789_a_at) / Fold change /veh FAM167A (11723789_a_at) / RFU FAM26E (11764081_at) / Fold change /veh FAM26E (11764081_at) / RFU ISYNA1 (11749810_s_at) / Fold change /veh ISYNA1 (11749810_s_at) / RFU ACY1 (11761880_at) / Fold change /veh ACY1 (11761880_at) / RFU 11764098_at / Fold change /veh 11764098_at / RFU SAMD14 (11745864_x_at) / Fold change /veh SAMD14 (11745864_x_at) / RFU NPB (11741838_a_at) / Fold change /veh NPB (11741838_a_at) / RFU TMPRSS6 (11731388_a_at) / Fold change /veh TMPRSS6 (11731388_a_at) / RFU KRTAP10-2 (11738614_at) / Fold change /veh KRTAP10-2 (11738614_at) / RFU ARHGAP8 /// PRR5-ARHGAP8 (11727945_x_at) / Fold change /veh ARHGAP8 /// PRR5-ARHGAP8 (11727945_x_at) / RFU KRTAP5-7 /// NADSYN1 (11734609_at) / Fold change /veh KRTAP5-7 /// NADSYN1 (11734609_at) / RFU RASL12 (11751679_a_at) / Fold change /veh RASL12 (11751679_a_at) / RFU CDKN2B (11736163_a_at) / Fold change /veh CDKN2B (11736163_a_at) / RFU PRF1 (11729649_at) / Fold change /veh PRF1 (11729649_at) / RFU, ZNF638 /// ZNF638-IT1 / Fold change vs veh, ZNF638 /// ZNF638-IT1 / RFU, PANK3 / Fold change vs veh, PANK3 / RFU, SH3YL1 / Fold change vs veh, SH3YL1 / RFU, ZEB2 / Fold change vs veh, ZEB2 / RFU, NRIP1 / Fold change vs veh, NRIP1 / RFU, PTTG1IP / Fold change vs veh, PTTG1IP / RFU, CAPN2 / Fold change vs veh, CAPN2 / RFU, MED14 / Fold change vs veh, MED14 / RFU, SNORA58 / Fold change vs veh, SNORA58 / RFU, C1orf63 / Fold change vs veh, C1orf63 / RFU, LRRFIP1 / Fold change vs veh, LRRFIP1 / RFU, NDUFAF7 / Fold change vs veh, NDUFAF7 / RFU, SLC12A2 / Fold change vs veh, SLC12A2 / RFU, IBTK / Fold change vs veh, IBTK / RFU, ESF1 / Fold change vs veh, ESF1 / Fold change vs veh, TMEM50B / RFU, TAOK1 / Fold change vs veh, TAOK1 / RFU, ACBD3 / Fold change vs veh, ACBD3 / RFU, TMA16 / Fold change vs veh, TMA16 / RFU, RWDD3 / Fold change vs veh, RWDD3 / RFU, BCAT1 / Fold change vs veh, BCAT1 / RFU, EDEM3 / Fold change vs veh, EDEM3 / RFU, TMEM33 / Fold change vs veh, TMEM33 / RFU, WDR75 / Fold change vs veh, WDR75 / RFU, AHCTF1 / Fold change vs veh, AHCTF1 / RFU, TFRC / Fold change vs veh, TFRC / RFU, ZDHHC17 / Fold change vs veh, ZDHHC17 / RFU, NOM1 / Fold change vs veh, NOM1 / RFU, ARL8B / Fold change vs veh, ARL8B / RFU, ZBTB11 / Fold change vs veh, ZBTB11 / RFU, TAMM41 / Fold change vs veh, TAMM41 / RFU, KIAA1704 /// LOC100996395 / Fold change vs veh, KIAA1704 /// LOC100996395 / RFU, ING1 / Fold change vs veh, ING1 / RFU, TRMT61B / Fold change vs veh, TRMT61B / RFU, FUBP3 / Fold change vs veh, FUBP3 / RFU, TP53 / Fold change vs veh, TP53 / RFU, TNKS2 / Fold change vs veh, TNKS2 / RFU, ZFP14 / Fold change vs veh, ZFP14 / RFU, ACTR2 / Fold change vs veh, ACTR2 / RFU, PPP3R1 / Fold change vs veh, PPP3R1 / RFU, PIK3R1 / Fold change vs veh, PIK3R1 / RFU, HNRNPA1 / Fold change vs veh, HNRNPA1 / RFU, RNF170 / Fold change vs veh, RNF170 / RFU, ZNF28 / Fold change vs veh, ZNF28 / RFU, RNGTT / Fold change vs veh, RNGTT / RFU, OGT / Fold change vs veh, OGT / RFU, BRD1 / Fold change vs veh, BRD1 / RFU, MARS / Fold change vs veh, MARS / RFU, ZNF655 / Fold change vs veh, ZNF655 / RFU, FAHD1 / Fold change vs veh, FAHD1 / RFU, BDP1 / Fold change vs veh, BDP1 / RFU, LRRCC1 / Fold change vs veh, LRRCC1 / RFU, ARID1A / Fold change vs veh, ARID1A / RFU, ZNF146 / Fold change vs veh, ZNF146 / RFU, ZNF330 / Fold change vs veh, ZNF330 / RFU, GPN3 / Fold change vs veh, GPN3 / RFU, C9orf123 / Fold change vs veh, C9orf123 / RFU, N4BP2L2 / Fold change vs veh, N4BP2L2 / RFU, ARFIP1 / Fold change vs veh, ARFIP1 / RFU, FAM179B / Fold change vs veh, FAM179B / RFU, BCL10 / Fold change vs veh, BCL10 / RFU, UHRF1BP1L / Fold change vs veh, UHRF1BP1L / RFU, BET1 / Fold change vs veh, BET1 / RFU, CNOT2 / Fold change vs veh, CNOT2 / RFU, ZNF268 / Fold change vs veh, ZNF268 / Fold change vs veh, ZNF507 / RFU, DGCR2 / Fold change vs veh, DGCR2 / RFU, WDSUB1 / Fold change vs veh, WDSUB1 / Fold change vs veh, HSP90B1 /// MIR3652 / RFU, ADSS / Fold change vs veh, ADSS / RFU, GK / Fold change vs veh, GK / RFU, ZNF148 / Fold change vs veh, ZNF148 / RFU, TAF9 / Fold change vs veh, TAF9 / RFU, SLC1A5 / Fold change vs veh, SLC1A5 / RFU, SLMO2 / Fold change vs veh, SLMO2 / RFU, ABCC4 / Fold change vs veh, ABCC4 / RFU, LOC101060439 /// RAP1B / Fold change vs veh, LOC101060439 /// RAP1B / RFU, RFX7 / Fold change vs veh, RFX7 / RFU, GTPBP10 / Fold change vs veh, GTPBP10 / RFU, CNEP1R1 / Fold change vs veh, CNEP1R1 / RFU, BIVM-ERCC5 /// ERCC5 / Fold change vs veh, BIVM-ERCC5 /// ERCC5 / RFU, ILF3 / Fold change vs veh, ILF3 / RFU 11762660_at / Fold change /veh 11762660_at / RFU VCAN (11757783_s_at) / Fold change /veh VCAN (11757783_s_at) / RFU DDX43 (11728927_at) / Fold change /veh DDX43 (11728927_at) / RFU KRT8 (11758188_x_at) / Fold change /veh KRT8 (11758188_x_at) / RFU NKD1 (11759106_at) / Fold change /veh NKD1 (11759106_at) / RFU SRD5A1 (11742802_a_at) / Fold change /veh SRD5A1 (11742802_a_at) / RFU TPSAB1 /// TPSB2 (11721975_s_at) / Fold change /veh TPSAB1 /// TPSB2 (11721975_s_at) / RFU GSTM3 (11746129_a_at) / Fold change /veh GSTM3 (11746129_a_at) / RFU IL23R (11737362_x_at) / Fold change /veh IL23R (11737362_x_at) / RFU TMEM51 (11727254_a_at) / Fold change /veh TMEM51 (11727254_a_at) / RFU PIWIL2 (11732686_x_at) / Fold change /veh PIWIL2 (11732686_x_at) / RFU ORM1 (11744905_x_at) / Fold change /veh ORM1 (11744905_x_at) / RFU CCDC152 (11743942_at) / Fold change /veh CCDC152 (11743942_at) / RFU ECM1 (11717891_a_at) / Fold change /veh ECM1 (11717891_a_at) / RFU IL23R (11748794_a_at) / Fold change /veh IL23R (11748794_a_at) / RFU TNFAIP8L3 (11732012_x_at) / Fold change /veh TNFAIP8L3 (11732012_x_at) / RFU MBOAT4 (11741988_at) / Fold change /veh MBOAT4 (11741988_at) / RFU 11764193_at / Fold change /veh 11764193_at / RFU TMEM53 (11763286_at) / Fold change /veh TMEM53 (11763286_at) / RFU MAGEB2 (11727129_at) / Fold change /veh MAGEB2 (11727129_at) / RFU TMEM200A (11744735_a_at) / Fold change /veh TMEM200A (11744735_a_at) / RFU CCDC152 (11751479_a_at) / Fold change /veh CCDC152 (11751479_a_at) / RFU FAM211A (11726209_a_at) / Fold change /veh FAM211A (11726209_a_at) / RFU RGS16 (11746705_a_at) / Fold change /veh RGS16 (11746705_a_at) / RFU VCAN (11755009_s_at) / Fold change /veh VCAN (11755009_s_at) / RFU RHOB (11743442_s_at) / Fold change /veh RHOB (11743442_s_at) / RFU RGS16 (11720943_a_at) / Fold change /veh RGS16 (11720943_a_at) / RFU RGS16 (11720944_at) / Fold change /veh RGS16 (11720944_at) / RFU, VPS4B / Fold change vs veh, VPS4B / RFU, CREB1 / Fold change vs veh, CREB1 / RFU, DNAJC13 / Fold change vs veh, DNAJC13 / RFU, GNAQ / Fold change vs veh, GNAQ / RFU, CDK5R1 / Fold change vs veh, CDK5R1 / RFU, ZRANB3 / Fold change vs veh, ZRANB3 / RFU, CUL4A / Fold change vs veh, CUL4A / RFU, CCNY / Fold change vs veh, CCNY / RFU, UFL1 / Fold change vs veh, UFL1 / RFU, COG3 / Fold change vs veh, COG3 / RFU, DIAPH2 / Fold change vs veh, DIAPH2 / RFU, SKA2 / Fold change vs veh, SKA2 / RFU, AFF3 / Fold change vs veh, AFF3 / RFU, LMF1 / Fold change vs veh, LMF1 / RFU, IPO11 / Fold change vs veh, IPO11 / RFU, DFFB / Fold change vs veh, DFFB / RFU, FOXP1 / Fold change vs veh, FOXP1 / RFU, CARD8 / Fold change vs veh, CARD8 / RFU, STRN3 / Fold change vs veh, STRN3 / RFU, ADK / Fold change vs veh, ADK / RFU, RASSF2 / Fold change vs veh, RASSF2 / RFU, WIPF1 / Fold change vs veh, WIPF1 / RFU, LARP1B / Fold change vs veh, LARP1B / RFU, RASA1 / Fold change vs veh, RASA1 / RFU, RB1 / Fold change vs veh, RB1 / RFU, PPFIA1 / Fold change vs veh, PPFIA1 / RFU, MAT2A / Fold change vs veh, MAT2A / RFU, CCT5 / Fold change vs veh, CCT5 / RFU, WDR92 / Fold change vs veh, WDR92 / RFU, CUX1 / Fold change vs veh, CUX1 / RFU, TTC7A / Fold change vs veh, TTC7A / RFU, TMEM135 / Fold change vs veh, TMEM135 / RFU, DEPTOR / Fold change vs veh, DEPTOR / RFU, CPM / Fold change vs veh, CPM / RFU, DNAJB6 / Fold change vs veh, DNAJB6 / RFU, CACNA2D3 / Fold change vs veh, CACNA2D3 / RFU, DTX4 / Fold change vs veh, DTX4 / RFU, TFCP2 / Fold change vs veh, TFCP2 / RFU, GMCL1 /// GMCL1P1 / Fold change vs veh, GMCL1 /// GMCL1P1 / RFU, AEBP2 / Fold change vs veh, AEBP2 / RFU, SNHG1 /// SNORD22 /// SNORD25 /// SNORD26 /// SNORD27 /// SNORD28 /// SNORD29 /// SNORD31 / Fold change vs veh, SNHG1 /// SNORD22 /// SNORD25 /// SNORD26 /// SNORD27 /// SNORD28 /// SNORD29 /// SNORD31 / Fold change (Aza/veh), C12orf56 (ProbeSet 11735607_a_at) / Fold change (ACY-1035/veh), C12orf56 (ProbeSet 11735607_a_at) / Fold change (Aza/veh), FGFR1OP (ProbeSet 11751329_s_at) / Fold change (ACY-1035/veh), FGFR1OP (ProbeSet 11751329_s_at) / Fold change (Aza/veh), VPS36 (ProbeSet 11739960_a_at) / Fold change (ACY-1035/veh), VPS36 (ProbeSet 11739960_a_at) / RFU SYPL1 (11715823_x_at) / Fold change /veh SYPL1 (11715823_x_at) / RFU IGFBP7 (11715501_s_at) / Fold change /veh IGFBP7 (11715501_s_at) / RFU REEP3 (11722064_at) / Fold change /veh REEP3 (11722064_at) / RFU IGLL1 (11728026_x_at) / Fold change /veh IGLL1 (11728026_x_at): dose or concentration left out as unconfirmed
Details: MV-4-11 cells, 48 hours

## Nc1ncn([C@@H]2O[C@H](CO)[C@@H](O)[C@H]2O)c(=O)n1 [azacitidine]
  Fold change /veh C5orf56 (11738088_a_at): 0.98
